# Data as given in US20120324604A1, “PESTICIDAL MIXTURES CONTAINING ISOXAZOLINE DERIVATIVES AND A FUNGICIDE” (priority 2010, published 2012).
# Values joined by “and” are separate entries in the source; they are usually repeats but may differ in a detail not shown here. Equal entries are not always repeated.
# Columns and labels:
# Type in all cases: cell-based
# Pythium ultimum = Pythium ultimum (Damping Off) growth inhibition, microtiter plate, photometric; conditions: single compound at 0.125 ppm AI
# Procedure: Pythium ultimum (Damping Off):
# Mycelial fragments of the fungus, prepared from a fresh liquid culture, were directly mixed into nutrient broth (potato dextrose broth). After placing a (DMSO) solution of the test compounds into a microtiter plate (96-well format) the nutrient broth containing the fungal spores was added.
# Rhizoctonia solani = Rhizoctonia solani (Foot Rot, Damping-Off) growth inhibition, microtiter plate, photometric
# Procedure: Rhizoctonia solani (Foot Rot, Damping-Off):
# Mycelial fragments of the fungus from cryogenic storage were directly mixed into nutrient broth (potato dextrose broth). After placing a (DMSO) solution of the test compounds into a microtiter plate (96-well format) the nutrient broth containing the fungal spores was added.
# Gaeumannomyces graminis = Gaeumannomyces graminis growth inhibition, microtiter plate, photometric
# Procedure: Mycelial fragments of the fungus from cryogenic storage were directly mixed into nutrient broth (potato dextrose broth). After placing a (DMSO) solution of the test compounds into a microliter plate (96-well format) the nutrient broth containing the fungal spores was added.
# [1] = test system: Glomerella lagenarium (syn. Colletotrichum lagenarium); test: Glomerella lagenarium (Anthracnose of Cucurbits) growth inhibition, microtiter plate, photometric; conditions: alone
# Procedure: Glomerella lagenarium (syn. Colletotrichum lagenarium), Anthracnose of Cucurbits:
# (§1) Conidia of the fungus from cryogenic storage were directly mixed into nutrient broth (potato dextrose broth). After placing a (DMSO) solution of the test compounds into a microtiter plate (96-well format) the nutrient broth containing the fungal spores was added.
# Septoria tritici = Septoria tritici (Leaf Blotch) growth inhibition, microtiter plate, photometric
# Procedure: Septoria tritici (Leaf Blotch):
# as §1
# [2] = test system: Mycosphaerella arachidis (syn. Cercospora arachidicola); test: Mycosphaerella arachidis (Brown Leaf Spot of Groundnut) growth inhibition, microtiter plate, photometric; conditions: alone
# Procedure: Mycosphaerella arachidis (syn. Cercospora arachidicola), Brown Leaf Spot of Groundnut (Peanut):
# as §1
# Fusarium culmorum = Fusarium culmorum (Root Rot) growth inhibition, microtiter plate, photometric; conditions: alone
# Procedure: Fusarium culmorum (Root Rot):
# as §1
# [3] = single compound at 0.0625 ppm AI
# [4] = single compound at 0.125 ppm AI
structure (smiles),measurement,setting,value
"CO/C=C(/C(=O)OC)c1ccccc1Oc1cc(Oc2ccccc2C#N)ncn1 [Azoxystrobin, reference compound]",AVERAGE DEAD IN %,Pythium ultimum,0%
same,AVERAGE DEAD IN %,"Rhizoctonia solani; applied alone, 0.125 ppm AI",20%
same,AVERAGE DEAD IN %,"Rhizoctonia solani; applied alone, 0.25 ppm AI",20%
same,AVERAGE DEAD IN %,"Rhizoctonia solani; applied alone, 0.5 ppm AI",20%
same,AVERAGE DEAD IN %,"Rhizoctonia solani; applied alone, 1 ppm AI",20%
same,AVERAGE DEAD IN %,"Rhizoctonia solani; applied alone, 2 ppm AI",20%
same,AVERAGE DEAD IN %,Rhizoctonia solani; [3],20%
same,AVERAGE DEAD IN %,Rhizoctonia solani; [4],20%
same,AVERAGE DEAD IN %,Rhizoctonia solani; single compound at 0.25 ppm AI,20%
same,AVERAGE DEAD IN %,Rhizoctonia solani; single compound at 0.5 ppm AI,20%
same,AVERAGE DEAD IN %,Rhizoctonia solani; single compound at 1 ppm AI,20%
same,AVERAGE DEAD IN %,Rhizoctonia solani; single compound at 2 ppm AI,20%
same,AVERAGE DEAD IN %,"Gaeumannomyces graminis; applied alone, 0.00390625 ppm AI",0%
same,AVERAGE DEAD IN %,"Gaeumannomyces graminis; applied alone, 0.0078125 ppm AI",0%
same,AVERAGE DEAD IN %,"Gaeumannomyces graminis; applied alone, 0.015625 ppm AI",0%
same,AVERAGE DEAD IN %,"Gaeumannomyces graminis; applied alone, 0.03125 ppm AI",0%
same,AVERAGE DEAD IN %,"Gaeumannomyces graminis; applied alone, 0.0625 ppm AI",0%
same,AVERAGE DEAD IN %,"Gaeumannomyces graminis; applied alone, 0.125 ppm AI",20%
same,AVERAGE DEAD IN %,"Gaeumannomyces graminis; applied alone, 0.25 ppm AI",20%
same,AVERAGE DEAD IN %,"Gaeumannomyces graminis; applied alone, 0.5 ppm AI",50%
same,AVERAGE DEAD IN %,"Gaeumannomyces graminis; applied alone, 1 ppm AI",50%
same,AVERAGE DEAD IN %,"Gaeumannomyces graminis; applied alone, 2 ppm AI",50%
same,AVERAGE DEAD IN %,Gaeumannomyces graminis; single compound at 0.00390625 ppm AI,20%
same,AVERAGE DEAD IN %,Gaeumannomyces graminis; single compound at 0.015625 ppm AI,90% and 50%
same,AVERAGE DEAD IN %,Gaeumannomyces graminis; single compound at 0.03125 ppm AI,100% and 50%
same,AVERAGE DEAD IN %,Gaeumannomyces graminis; [3],50%
same,AVERAGE DEAD IN %,Gaeumannomyces graminis; [4],70%
same,AVERAGE DEAD IN %,Gaeumannomyces graminis; single compound at 0.25 ppm AI,70%
same,AVERAGE DEAD IN %,Gaeumannomyces graminis; single compound at 0.5 ppm AI,90%
same,AVERAGE DEAD IN %,Gaeumannomyces graminis; single compound at 1 ppm AI,90%
same,AVERAGE DEAD IN %,Gaeumannomyces graminis; single compound at 2 ppm AI,90%
same,AVERAGE DEAD IN %,[1]; 0.0078125 ppm AI,0%
same,AVERAGE DEAD IN %,[1]; 0.015625 ppm AI,20%
same,AVERAGE DEAD IN %,[1]; 0.03125 ppm AI,50%
same,AVERAGE DEAD IN %,"Septoria tritici; 0.015625 ppm AI, alone",20%
same,AVERAGE DEAD IN %,"Septoria tritici; 0.03125 ppm AI, alone",50%
same,AVERAGE DEAD IN %,"Septoria tritici; 0.0625 ppm AI, alone",70%
same,AVERAGE DEAD IN %,"Septoria tritici; 0.125 ppm AI, alone",90%
same,AVERAGE DEAD IN % Azoxystrobin,"Septoria tritici; Azoxystrobin alone, 0.015625 ppm AI",20%
same,AVERAGE DEAD IN % Azoxystrobin,"Septoria tritici; Azoxystrobin alone, 0.0625 ppm AI",70%
same,AVERAGE DEAD IN % Azoxystrobin,"Septoria tritici; Azoxystrobin alone, 0.125 ppm AI",90%
same,AVERAGE DEAD IN %,"Septoria tritici; alone, 0.0078125 ppm AI",0%
same,AVERAGE DEAD IN %,"Septoria tritici; alone, 0.015625 ppm AI",20%
same,AVERAGE DEAD IN %,"Septoria tritici; alone, 0.03125 ppm AI",50%
same,AVERAGE DEAD IN %,"Septoria tritici; alone, 0.0625 ppm AI",70%
same,AVERAGE DEAD IN %,"Septoria tritici; alone, 0.125 ppm AI",90%
same,AVERAGE DEAD IN %,[2]; 0.0078125 ppm AI,0%
same,AVERAGE DEAD IN %,[2]; 0.015625 ppm AI,0%
same,AVERAGE DEAD IN %,[2]; 0.0625 ppm AI,70% and 50%
same,AVERAGE DEAD IN %,[2]; 0.125 ppm AI,90%
same,AVERAGE DEAD IN %,[2]; 0.0078125 PPM AI,0%
same,AVERAGE DEAD IN %,[2]; 0.015625 PPM AI,20%
same,AVERAGE DEAD IN %,[2]; 0.03125 PPM AI,50% and 70%
same,AVERAGE DEAD IN %,[2]; 0.0625 PPM AI,90%
same,AVERAGE DEAD IN %,Fusarium culmorum; 0.5 PPM AI,0%
same,AVERAGE DEAD IN %,Fusarium culmorum; 1 PPM AI,20%
same,AVERAGE DEAD IN %,Fusarium culmorum; 2 PPM AI,20%
